{
  "source": "paper PMC9663578",
  "about": "“A fluorogenic probe for predicting treatment response in non-small cell lung cancer with EGFR-activating mutations” (Nature Communications, 2022)",
  "key": {"[1]": {"system": "biopsy samples from NSCLC patients", "assay": "HX103-based multicolor FACS, biopsy samples", "type": "cell-based, human"}, "BSA": {"target": "BSA (Bos taurus, UniProt P02769)", "sequence (P02769 25-607)": "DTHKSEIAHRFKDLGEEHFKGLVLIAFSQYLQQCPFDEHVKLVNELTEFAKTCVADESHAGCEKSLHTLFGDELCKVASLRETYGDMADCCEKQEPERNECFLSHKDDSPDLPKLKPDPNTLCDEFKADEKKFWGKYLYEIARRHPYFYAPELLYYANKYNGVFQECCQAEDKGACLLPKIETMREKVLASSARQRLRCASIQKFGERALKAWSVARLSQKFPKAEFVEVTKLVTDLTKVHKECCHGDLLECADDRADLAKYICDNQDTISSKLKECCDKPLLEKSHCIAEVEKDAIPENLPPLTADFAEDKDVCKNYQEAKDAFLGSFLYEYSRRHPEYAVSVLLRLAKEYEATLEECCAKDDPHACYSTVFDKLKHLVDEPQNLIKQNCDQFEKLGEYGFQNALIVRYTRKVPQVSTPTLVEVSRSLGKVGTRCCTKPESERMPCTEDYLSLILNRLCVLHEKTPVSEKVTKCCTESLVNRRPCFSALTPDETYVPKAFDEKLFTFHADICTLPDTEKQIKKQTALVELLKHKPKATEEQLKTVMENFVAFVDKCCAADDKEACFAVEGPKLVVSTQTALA", "assay": "Fluorescence response of HX103 with BSA (control protein)", "type": "binding", "details": "Fig. 2d, n=1-3"}, "H1975 cells": {"system": "H1975 cells", "assay": "FACS assay in cultured cells", "details": "for HX103 dose-dependent signal (Supplementary Fig. 18): 20 µM = 100", "method": "(§1) Briefly, the cultured cells were seeded on the petri dish and counted using Count star BioMed automated cell counter. Around 10^6 live-cells were collected and were pelleted (2000×g, 3 min), followed by washing with PBS (2x). Cells were then resuspended in PBS buffer containing 0.1% BSA (1 × 10^6 cells/mL). […] The cell suspension was resuspended in PBS and analyzed with a FACSVerse^TM flow cytometer (BD Biosciences, LSRFortessa). About 10,000 events per tube were analyzed and the mean fluorescence intensity was detected and analyzed.\n(§2) For the FACS assay with EGFR antibody, around 10^6 live-cells were collected and washed with PBS (2x). The cells were fixed by 400 µL 4% paraformaldehyde for 15 min at room temperature, followed by permeabilization with 0.1% Triton X-100 for 10 min and blocking with 5% BSA for 30 min. […] The cells were then washed with 0.5% BSA/PBS (3x) and resuspended in 400 µL of 0.1% BSA/PBS. […] The resuspended cell suspension was then analyzed on a FACSVerseTM flow cytometer (BD Biosciences, LSRFortessa). Nonspecific fluorescence binding was omitted by Rabbit mAb IgG isotype control (#3900, CST, 1:100) and the corresponding mean fluorescence was subtracted from the signal measured with each primary antibody. About 10,000 events per tube were analyzed and the mean fluorescence intensity was detected and analyzed.\n(§3) Subsequently, the treated cells were incubated for 30 min at 37 °C, followed by washing with PBS buffer three times. […] Finally, the co-stained cells were washed with 0.5% BSA/PBS for three times and resuspended in 400 µL of 0.1% BSA/PBS. The obtained cell suspension was ready for analysis. Nonspecific fluorescence binding was omitted by Rabbit mAb IgG isotype control (#3900, CST, 1:100) as described above.\n(§4) Nonspecific fluorescence binding was omitted by Rabbit mAb IgG isotype control (#3900, CST, 1:100). […] After incubation for another 30 min at room temperature, the co-stained cells were washed with 0.5% BSA/PBS for three times and resuspended in 400 µL of 0.1% BSA/PBS. The obtained cell suspension was ready for analysis. Nonspecific fluorescence binding was omitted by Rabbit mAb IgG isotype control (#3900, CST, 1:100) as described above.\n(§5) The cells were seeded on the petri dish and cultured at the normal condition with 10% FBS, and that was changed to serum-free condition for 24 h when the cells proliferated at ~80% confluence. […] Nonspecific fluorescence binding was omitted by Rabbit mAb IgG isotype control (#3900, CST, 1:100) as described above."}, "HCC827 cells": {"system": "HCC827 cells", "assay": "FACS assay in cultured cells", "details": "for HX103 dose-dependent signal (Supplementary Fig. 18): 20 µM = 100", "method": "as §1, §2, §3, §4, §5"}, "Jurkat cells": {"system": "Jurkat cells", "assay": "FACS assay in cultured cells", "method": "The FACS assay was performed according to the reported literatures[67],[68]. Briefly, the cultured cells were seeded on the petri dish and counted using Count star BioMed automated cell counter. Around 10^6 live-cells were collected and were pelleted (2000×g, 3 min), followed by washing with PBS (2x). Cells were then resuspended in PBS buffer containing 0.1% BSA (1 × 10^6 cells/mL). […] The cell suspension was resuspended in PBS and analyzed with a FACSVerse^TM flow cytometer (BD Biosciences, LSRFortessa). About 10,000 events per tube were analyzed and the mean fluorescence intensity was detected and analyzed.\nas §2, §3, §4, §5"}, "[2]": {"details": "Fig. 6d, Mutation, average over patients"}, "[3]": {"details": "Fig. 6d, Mutation, one value per patient"}, "[4]": {"details": "Fig. 6d, WT, average over patients"}, "[5]": {"details": "Fig. 6d, WT, one value per patient"}, "[6]": {"details": "HX103 5 µM, 30 min, replicates n=1-3"}},
  "note": "Values joined by “and” are separate entries in the source; they are usually repeats but may differ in a detail not shown here. Identical values can stand only once.",
  "data": [
    {"smiles": "COc1cc2c(Nc3ccc(F)c(Cl)c3)ncnc2cc1OCCCNc1ccc(S(=O)(=O)N(C)C)c2nonc12", "note": "[HX103]", "values": [
      {"measurement": "EGFR(+) HX103 (+) (%) AVE", "setting": "[1]; Fig. 6f, SD/PD, average", "value": 9.47, "unit": "%"},
      {"measurement": "HX103 (+) (%) AVE", "setting": "[1]; Fig. 6f, SD/PD, average", "value": 17.0025, "unit": "%"},
      {"measurement": "EGFR(+) HX103 (+) (%)", "setting": "[1]; Fig. 6g, Patient (No. 3)", "value": 26.16, "unit": "%"},
      {"measurement": "EGFR(+) HX103 (+) (%)", "setting": "[1]; Fig. 6h, Patient (No. 7)", "value": 34.2, "unit": "%"},
      {"measurement": "HX103(+) (%)", "setting": "[1]; Fig. 6h, Patient (No. 7)", "value": 51.5, "unit": "%"},
      {"measurement": "EGFR(+) HX103 (+) (%) AVE", "setting": "[1]; [2]", "value": 34.0833, "unit": "%"},
      {"measurement": "HX103 (+) (%) AVE", "setting": "[1]; [2]", "value": 48.2347, "unit": "%"},
      {"measurement": "EGFR(+) HX103 (+) (%)", "setting": "[1]; [3]", "value": "47.7% and 46.42% and 26.16% and 37.95% and 54.7% and 42.61% and 34.2% and 4.84% and 50.92% and 41.57% and 2.07% and 30.8% and 55.7% and 4.81%"},
      {"measurement": "HX103(+) (%)", "setting": "[1]; [3]", "value": "47.95% and 53.5% and 30.41% and 49.49% and 61.89% and 48.6% and 51.54% and 13.72% and 92.61% and 50.98% and 11.82% and 76% and 77.45% and 45.5% and 12.06%"},
      {"measurement": "EGFR(+) HX103 (+) (%) AVE", "setting": "[1]; [4]", "value": 3.4875, "unit": "%"},
      {"measurement": "HX103 (+) (%) AVE", "setting": "[1]; [4]", "value": 10.0231, "unit": "%"},
      {"measurement": "EGFR(+) HX103 (+) (%)", "setting": "[1]; [5]", "value": "2.605% and 13.7% and 4.44% and 3.27% and 0.6% and -0.34% and 1.35% and 4.89% and 0.098% and 0.24% and 1.08% and 10.76% and 4.24% and 2.1% and 0.447% and 6.32%"},
      {"measurement": "HX103(+) (%)", "setting": "[1]; [5]", "value": "5.005% and 21.85% and 10.96% and 7.41% and 3.16% and -1.81% and 3.59% and 12.92% and 4.005% and 1.16% and 7.12% and 18.43% and 19.52% and 10.47% and 20.56% and 16.02%"},
      {"measurement": "mean ratio of EGFR(+)HX103(+), non-responders", "setting": "[1]; SD or PD, n = 4", "value": "9.5 ± 5.6", "unit": "%"},
      {"measurement": "mean ratio of HX103(+), non-responders", "setting": "[1]; SD or PD, n = 4", "value": "17.0 ± 4.5", "unit": "%"},
      {"measurement": "Fluorescence intensity at 570 nm", "setting": "BSA", "value": "39.1473 and 21.3173 and 35.8927"},
      {"measurement": "EGFR(+) HX103 (+) (%) AVE", "setting": "H1975 cells; H1975, AVE of n=3", "value": 82.37, "unit": "%"},
      {"measurement": "HX103 (+) (%) AVE", "setting": "H1975 cells; H1975, AVE of n=3", "value": 87.9667, "unit": "%"},
      {"measurement": "HX103 dose-dependent signal (Supplementary Fig. 18)", "setting": "H1975 cells; H1975, HX103 0.04 µM", "value": "2.425 and 4.214 and 3.319"},
      {"measurement": "HX103 dose-dependent signal (Supplementary Fig. 18)", "setting": "H1975 cells; H1975, HX103 0.37 µM", "value": "11.9338 and 12.3486 and 12.1512"},
      {"measurement": "HX103 dose-dependent signal (Supplementary Fig. 18)", "setting": "H1975 cells; H1975, HX103 1.1 µM", "value": "36.5652 and 42.2419 and 39.4086"},
      {"measurement": "HX103 dose-dependent signal (Supplementary Fig. 18)", "setting": "H1975 cells; H1975, HX103 3.3 µM", "value": "51.8347 and 43.4647 and 47.0457"},
      {"measurement": "HX103 dose-dependent signal (Supplementary Fig. 18)", "setting": "H1975 cells; H1975, HX103 10 µM", "value": "81.1792 and 74.1549 and 77.687"},
      {"measurement": "HX103 dose-dependent signal (Supplementary Fig. 18)", "setting": "H1975 cells; H1975, HX103 15 µM", "value": "93.412 and 78.0323 and 85.7212"},
      {"measurement": "HX103 dose-dependent signal (Supplementary Fig. 18)", "setting": "H1975 cells; H1975, HX103 20 µM", "value": 100},
      {"measurement": "HX103 signal (Supplementary Fig. 7)", "setting": "H1975 cells; H1975, HX103 alone or with Gefitinib, replicates n=1-3", "value": "118.617 and 81.9826 and 99.4"},
      {"measurement": "EGFR(+) HX103 (+) (%)", "setting": "H1975 cells; H1975, replicates n=1-3", "value": "74.3% and 85.37% and 87.44%"},
      {"measurement": "HX103(+) (%)", "setting": "H1975 cells; H1975, replicates n=1-3", "value": "98.62% and 87.52% and 77.76%"},
      {"measurement": "normalized MFI of HX103 labeling", "setting": "H1975 cells; [6]", "value": "81.9742% and 118.026% and 100%"},
      {"measurement": "EGFR(+) HX103 (+) (%)", "setting": "H1975 cells; HX103 5 µM, replicates n=1-3", "value": "85.37% and 87.44% and 74.3%"},
      {"measurement": "EGFR(+) HX103 (+) (%) AVE", "setting": "HCC827 cells; HCC827, AVE of n=3", "value": 80.23, "unit": "%"},
      {"measurement": "HX103 (+) (%) AVE", "setting": "HCC827 cells; HCC827, AVE of n=3", "value": 86.6667, "unit": "%"},
      {"measurement": "HX103 dose-dependent signal (Supplementary Fig. 18)", "setting": "HCC827 cells; HCC827, HX103 0.01 µM", "value": "0.7326 and 0.7683 and 0.9746"},
      {"measurement": "HX103 dose-dependent signal (Supplementary Fig. 18)", "setting": "HCC827 cells; HCC827, HX103 0.04 µM", "value": "2.846 and 2.806 and 2.831"},
      {"measurement": "HX103 dose-dependent signal (Supplementary Fig. 18)", "setting": "HCC827 cells; HCC827, HX103 0.37 µM", "value": "22.4134 and 22.8581 and 22.7877"},
      {"measurement": "HX103 dose-dependent signal (Supplementary Fig. 18)", "setting": "HCC827 cells; HCC827, HX103 1.1 µM", "value": "38.2787 and 42.4364 and 41.8565"},
      {"measurement": "HX103 dose-dependent signal (Supplementary Fig. 18)", "setting": "HCC827 cells; HCC827, HX103 3.3 µM", "value": "54.3583 and 44.1499 and 45.6521"},
      {"measurement": "HX103 dose-dependent signal (Supplementary Fig. 18)", "setting": "HCC827 cells; HCC827, HX103 10 µM", "value": "74.1678 and 84.8664 and 79.5169"},
      {"measurement": "HX103 dose-dependent signal (Supplementary Fig. 18)", "setting": "HCC827 cells; HCC827, HX103 15 µM", "value": "88.3889 and 68.5257 and 78.4542"},
      {"measurement": "HX103 dose-dependent signal (Supplementary Fig. 18)", "setting": "HCC827 cells; HCC827, HX103 20 µM", "value": 100},
      {"measurement": "HX103 signal (Supplementary Fig. 7)", "setting": "HCC827 cells; HCC827, HX103 alone or with Gefitinib, replicates n=1-3", "value": "106.679 and 93.3209 and 100"},
      {"measurement": "EGFR(+) HX103 (+) (%)", "setting": "HCC827 cells; HCC827, replicates n=1-3", "value": "76.09% and 81.73% and 82.87%"},
      {"measurement": "HX103(+) (%)", "setting": "HCC827 cells; HCC827, replicates n=1-3", "value": "99.17% and 83.21% and 77.62%"},
      {"measurement": "normalized MFI of HX103 labeling", "setting": "HCC827 cells; [6]", "value": "92.4893% and 105.794% and 84.1202%"},
      {"measurement": "EGFR(+) HX103 (+) (%)", "setting": "HCC827 cells; HX103 5 µM, replicates n=1-3", "value": "81.73% and 82.87% and 76.09%"},
      {"measurement": "normalized MFI of HX103 labeling", "setting": "Jurkat cells; [6]", "value": "17.5966% and 26.6094% and 22.103%"},
      {"measurement": "EGFR(+) HX103 (+) (%)", "setting": "Jurkat cells; HX103 5 µM, replicates n=1-3", "value": "0.1% and 0.22% and -0.02%"},
      {"measurement": "EGFR(+) HX103 (+) (%) AVE", "setting": "Jurkat cells; Jurkat, AVE of n=3", "value": 0.1, "unit": "%"},
      {"measurement": "HX103 (+) (%) AVE", "setting": "Jurkat cells; Jurkat, AVE of n=3", "value": 0.05667, "unit": "%"},
      {"measurement": "EGFR(+) HX103 (+) (%)", "setting": "Jurkat cells; Jurkat, replicates n=1-3", "value": "-0.02% and 0.1% and 0.22%"},
      {"measurement": "HX103(+) (%)", "setting": "Jurkat cells; Jurkat, replicates n=1-3", "value": "0.07% and 0.01% and 0.09%"}
    ]}
  ]
}
